The source of these data is patent US7488712B2, “Histone deacetylase inhibitors and methods for producing the same” (Kyushu Institute of Technology, priority 2002, dated 2009).

The target in one data set is T1, mouse HDAC6 (Mus musculus, UniProt Q9Z2V5).
T1 construct: HA; made in house; host or cells: 293T cells (transient transfection, anti-HA immunoprecipitation, HA peptide elution)
T1 sequence (Q9Z2V5 1-1149): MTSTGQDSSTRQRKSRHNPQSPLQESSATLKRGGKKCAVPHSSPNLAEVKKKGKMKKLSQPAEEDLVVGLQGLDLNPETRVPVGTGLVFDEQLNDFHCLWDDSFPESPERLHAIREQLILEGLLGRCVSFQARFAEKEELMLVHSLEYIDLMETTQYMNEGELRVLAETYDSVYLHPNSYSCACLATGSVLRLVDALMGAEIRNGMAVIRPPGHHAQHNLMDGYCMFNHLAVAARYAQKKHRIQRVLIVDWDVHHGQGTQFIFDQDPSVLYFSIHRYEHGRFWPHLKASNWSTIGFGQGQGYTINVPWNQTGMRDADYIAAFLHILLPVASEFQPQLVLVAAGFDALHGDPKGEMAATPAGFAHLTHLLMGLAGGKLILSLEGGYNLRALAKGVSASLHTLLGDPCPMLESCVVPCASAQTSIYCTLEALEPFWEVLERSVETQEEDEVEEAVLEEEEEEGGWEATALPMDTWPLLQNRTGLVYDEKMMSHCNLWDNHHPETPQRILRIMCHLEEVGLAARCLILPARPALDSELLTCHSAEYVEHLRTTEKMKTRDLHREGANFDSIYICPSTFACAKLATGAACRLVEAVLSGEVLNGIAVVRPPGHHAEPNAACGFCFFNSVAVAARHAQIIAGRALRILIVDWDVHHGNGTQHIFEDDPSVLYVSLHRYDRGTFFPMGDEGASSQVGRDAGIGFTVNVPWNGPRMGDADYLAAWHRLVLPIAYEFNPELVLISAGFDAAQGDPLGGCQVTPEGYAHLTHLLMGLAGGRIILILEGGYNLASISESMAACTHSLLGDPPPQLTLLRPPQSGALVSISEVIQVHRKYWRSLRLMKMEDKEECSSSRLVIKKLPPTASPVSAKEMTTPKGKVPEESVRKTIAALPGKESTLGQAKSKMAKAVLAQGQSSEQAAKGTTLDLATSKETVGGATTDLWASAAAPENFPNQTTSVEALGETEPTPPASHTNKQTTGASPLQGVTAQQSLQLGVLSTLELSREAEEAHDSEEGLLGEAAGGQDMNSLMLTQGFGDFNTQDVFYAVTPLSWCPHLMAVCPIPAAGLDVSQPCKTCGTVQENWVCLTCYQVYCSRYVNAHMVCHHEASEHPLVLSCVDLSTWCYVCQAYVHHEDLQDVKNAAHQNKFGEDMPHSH
Nature of the data set: In vitro HDAC inhibition activity, [3H]-acetylated histone substrate, HDAC6. Type of data set: biochemical. The following applies: Table 3.

A further data set addresses T2, human HDAC4 (Homo sapiens, UniProt P56524).
T2 construct: FLAG; made in house; host or cells: 293T cells (transient transfection, anti-FLAG immunoprecipitation, FLAG peptide elution)
Put plainly: In vitro HDAC inhibition activity, [3H]-acetylated histone substrate, HDAC4. Type of data set: biochemical. The following applies: Table 3.

Data set [1] in a line: Cytotoxicity test (free-LDH ratio), TIG-3. Type of data set: cell-based. The following applies: human, TIG-3 human normal lung cells, 48 hours, free-LDH ratio 50%, read-out: LD50 (nM) TIG-3. The method, then:
This was then cultured for 18 hours.

The structures appear in SMILES notation. Like-named read-outs stand apart in the source and are kept apart here.

T2 sequence (O15379 whole entry partner): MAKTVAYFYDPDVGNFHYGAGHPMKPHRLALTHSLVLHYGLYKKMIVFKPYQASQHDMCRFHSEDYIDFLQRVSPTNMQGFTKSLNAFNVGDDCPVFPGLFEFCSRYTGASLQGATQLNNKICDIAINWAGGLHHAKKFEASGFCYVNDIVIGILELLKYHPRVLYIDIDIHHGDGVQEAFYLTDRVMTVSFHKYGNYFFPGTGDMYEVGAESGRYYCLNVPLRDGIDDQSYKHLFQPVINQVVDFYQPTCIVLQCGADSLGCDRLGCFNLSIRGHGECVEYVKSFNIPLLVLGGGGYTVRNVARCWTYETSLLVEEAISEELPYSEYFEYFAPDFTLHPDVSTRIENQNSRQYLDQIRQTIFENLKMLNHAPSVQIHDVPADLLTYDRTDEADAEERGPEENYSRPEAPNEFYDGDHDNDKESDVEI
T2 sequence (P56524 whole entry): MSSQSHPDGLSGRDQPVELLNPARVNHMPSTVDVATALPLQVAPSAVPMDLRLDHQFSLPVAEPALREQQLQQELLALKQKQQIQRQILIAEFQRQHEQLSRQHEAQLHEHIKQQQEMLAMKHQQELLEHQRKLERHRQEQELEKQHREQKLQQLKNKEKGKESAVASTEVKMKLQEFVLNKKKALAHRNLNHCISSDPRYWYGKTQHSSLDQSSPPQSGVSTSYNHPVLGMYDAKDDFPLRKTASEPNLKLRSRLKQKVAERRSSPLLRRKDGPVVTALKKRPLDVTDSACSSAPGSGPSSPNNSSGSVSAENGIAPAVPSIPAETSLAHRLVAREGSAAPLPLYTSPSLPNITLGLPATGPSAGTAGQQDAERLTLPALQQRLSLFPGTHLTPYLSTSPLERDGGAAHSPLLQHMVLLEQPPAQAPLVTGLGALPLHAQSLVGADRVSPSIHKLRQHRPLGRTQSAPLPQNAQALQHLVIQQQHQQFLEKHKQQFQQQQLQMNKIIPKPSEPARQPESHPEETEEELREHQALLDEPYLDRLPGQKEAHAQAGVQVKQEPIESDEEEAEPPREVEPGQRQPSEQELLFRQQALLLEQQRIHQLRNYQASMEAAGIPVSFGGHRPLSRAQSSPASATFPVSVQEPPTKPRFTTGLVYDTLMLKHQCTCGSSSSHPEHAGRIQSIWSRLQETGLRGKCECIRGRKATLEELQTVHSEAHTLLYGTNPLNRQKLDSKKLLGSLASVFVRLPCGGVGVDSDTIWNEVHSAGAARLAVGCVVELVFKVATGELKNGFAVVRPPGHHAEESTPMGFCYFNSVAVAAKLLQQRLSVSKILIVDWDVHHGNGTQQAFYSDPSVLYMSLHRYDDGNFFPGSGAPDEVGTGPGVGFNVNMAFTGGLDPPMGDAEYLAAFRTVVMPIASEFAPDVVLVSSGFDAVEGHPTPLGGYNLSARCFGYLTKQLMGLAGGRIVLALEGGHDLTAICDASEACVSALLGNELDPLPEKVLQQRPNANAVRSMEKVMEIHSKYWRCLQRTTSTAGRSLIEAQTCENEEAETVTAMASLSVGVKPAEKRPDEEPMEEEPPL

Consider `CC[C@H](C)[C@@H]1NC(=O)[C@@H](Cc2ccc(OC)cc2)NC(=O)[C@H](CCCCCSSc2ccncc2)NC(=O)[C@H]2CCCN2C1=O` [SCOP 402, cyclo(-L-Am7(S4Py)-D-Tyr(Me)-L-Ile-D-Pro-)], for which the IC50 was 2010 nM against mouse HDAC6 (hybrid with DTT (/DTT)); 1610 nM against mouse HDAC6 (hybrid, without DTT); 1.12 nM against human HDAC4 (hybrid with DTT (/DTT)); 68.3 nM against human HDAC4 (hybrid, without DTT). In addition, the CC50 at 48 h is 4460 nM in data set [1] (with DTT (/DTT)) and 13300 nM in data set [1] (without DTT).
